Measurements reported in US20230087844A1, “USE OF N2-QUINCLINE OR ISOQUINOLINE SUBSTITUTED PURINE DERIVATIVES IN CANCER TREATMENT” (SHANGHAI HUAYU BIOTECHNOLOGY CO., LTD., priority 2020, published 2023).
Marks after values point to notes of the source that are not given here.

Key:
MCF-7 = assay: MTT tumor cell proliferation, MCF-7; assay type: cell-based; details: Homo sapiens, MCF7; MCF-7, Breast cancer, 72 hour
Protocol: (§1) as an exemplary compound of formula (I), was tested for its inhibitory effect on tumor cell proliferation in a MTT assay.
(§2) Briefly, cells at the log phase were collected, suspended in the cell culture medium at 4*10^4/ml density, and plated in 96-well plates, 90 μl per well. The plates were kept in a 5% CO2 and 37° C. incubator for 2 hours, and then added with 100 μg/ml, 10 μg/ml, 1 μg/ml, 0.1 μg/ml, 0.01 μg/ml or 0.001 μg/ml Compound A, 4 replicates for each cell at each compound concentration. DMSO was used in the positive control group, and another negative group was also set. After 72 hour incubation in the same incubator, 20 μl 5 mg/ml MTT reagent was added to each well. After another 4 hour incubation, each well was added with 100 μl SDS and further incubated for 12 hours. Absorbance at 570 nm was read in a reader, and IC50 was calculated.

PI3K α isoform = PI3K α isoform (Homo sapiens, UniProt P42336); details: one of the other three isoforms
Chain of PI3K α isoform (P42336 whole entry, canonical isoform): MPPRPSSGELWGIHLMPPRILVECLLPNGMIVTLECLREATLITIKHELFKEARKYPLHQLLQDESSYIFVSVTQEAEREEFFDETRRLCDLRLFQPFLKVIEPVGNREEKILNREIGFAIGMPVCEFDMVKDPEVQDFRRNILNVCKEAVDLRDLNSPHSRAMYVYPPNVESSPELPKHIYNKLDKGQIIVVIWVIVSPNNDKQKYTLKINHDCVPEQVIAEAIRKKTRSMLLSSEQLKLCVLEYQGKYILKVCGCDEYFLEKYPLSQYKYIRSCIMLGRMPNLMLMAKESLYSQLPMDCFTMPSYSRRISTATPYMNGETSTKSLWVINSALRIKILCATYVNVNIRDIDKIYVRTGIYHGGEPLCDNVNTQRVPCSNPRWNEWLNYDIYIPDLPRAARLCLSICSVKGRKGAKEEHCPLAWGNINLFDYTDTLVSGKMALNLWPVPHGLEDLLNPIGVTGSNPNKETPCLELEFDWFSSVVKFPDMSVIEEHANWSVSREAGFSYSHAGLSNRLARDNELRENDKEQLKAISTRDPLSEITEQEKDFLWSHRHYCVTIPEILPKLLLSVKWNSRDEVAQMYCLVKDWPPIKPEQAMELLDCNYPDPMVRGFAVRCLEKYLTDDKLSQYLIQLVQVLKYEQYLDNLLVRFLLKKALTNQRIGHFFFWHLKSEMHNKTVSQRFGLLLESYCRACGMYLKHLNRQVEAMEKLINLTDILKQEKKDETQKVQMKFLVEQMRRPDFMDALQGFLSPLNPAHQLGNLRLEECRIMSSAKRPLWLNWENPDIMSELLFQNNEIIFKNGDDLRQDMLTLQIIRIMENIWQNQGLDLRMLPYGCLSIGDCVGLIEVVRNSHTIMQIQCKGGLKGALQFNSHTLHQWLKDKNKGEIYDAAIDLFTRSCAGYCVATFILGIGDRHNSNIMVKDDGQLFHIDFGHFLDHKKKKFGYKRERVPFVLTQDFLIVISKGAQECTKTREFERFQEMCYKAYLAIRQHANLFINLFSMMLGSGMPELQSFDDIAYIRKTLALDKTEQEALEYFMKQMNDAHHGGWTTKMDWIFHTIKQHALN
Chain of PI3K α isoform (P27986 whole entry partner, canonical isoform): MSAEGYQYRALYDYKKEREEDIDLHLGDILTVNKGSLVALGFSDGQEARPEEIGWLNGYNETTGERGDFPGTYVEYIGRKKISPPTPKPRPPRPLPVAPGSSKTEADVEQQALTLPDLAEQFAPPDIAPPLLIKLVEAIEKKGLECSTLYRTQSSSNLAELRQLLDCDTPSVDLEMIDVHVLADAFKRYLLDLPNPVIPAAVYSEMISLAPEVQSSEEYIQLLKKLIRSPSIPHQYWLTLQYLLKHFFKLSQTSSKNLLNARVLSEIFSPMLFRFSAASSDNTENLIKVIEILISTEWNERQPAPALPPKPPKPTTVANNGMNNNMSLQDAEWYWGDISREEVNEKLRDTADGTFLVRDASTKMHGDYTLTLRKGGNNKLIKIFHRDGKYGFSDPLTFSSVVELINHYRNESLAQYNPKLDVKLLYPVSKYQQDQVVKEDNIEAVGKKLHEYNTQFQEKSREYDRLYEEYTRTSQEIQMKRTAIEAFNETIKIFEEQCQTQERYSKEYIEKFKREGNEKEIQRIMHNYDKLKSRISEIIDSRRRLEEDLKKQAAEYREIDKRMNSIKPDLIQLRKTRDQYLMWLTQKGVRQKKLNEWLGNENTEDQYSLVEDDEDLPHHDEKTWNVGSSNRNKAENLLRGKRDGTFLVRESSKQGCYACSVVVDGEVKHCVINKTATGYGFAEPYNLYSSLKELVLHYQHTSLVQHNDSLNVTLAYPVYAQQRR

H441 = assay: MTT tumor cell proliferation, H441; assay type: cell-based; details: Homo sapiens, NCI-H441; H441, Lung cancer, 72 hour
Protocol: as §1, §2

[1] = test system: SGC-7901 human gastric cancer cells; assay: SGC-7901 gastric cancer xenograft in mice; details: D0, 3, 6, 9, 12; for T/C: D18
Protocol: Mice body weights and tumor sizes were measured 2 to 3 times a week. The tumor volume (V) was calculated as (length× width^2)/2. T/C (%) was calculated as (T-T0)/(C-C0)×100, wherein T and C represented the tumor volumes in the administration group and the vehicle group respectively at the end of the experiment, while T0 and C0 represented the tumor volumes in the administration group and the vehicle group respectively at the beginning of the experiment. And RTV was calculated as (Tumor volume at Day N/Tumor volume at Day 0).
BALB/cA-nude mice, 5-6 weeks old, purchased from Shanghai SLAC Laboratory Animal Co., Ltd, were subcutaneously inoculated with SGC-7901 human gastric cancer cells (from Cell Bank, Chinese Academy of Sciences).
Mice body weights and tumor sizes were measured 2 to 3 times a week. The tumor volume, T/C and RTV were calculated as described above. Mice were sacrificed on Day 18.

RS 4;11 = assay: MTT tumor cell proliferation, RS 4;11; assay type: cell-based; details: Homo sapiens, RS4-11; RS 4;11, Acute lymphocytic leukemia, 72 hour
Protocol: as §1, §2

THP-1 = assay: MTT tumor cell proliferation, THP-1; assay type: cell-based; details: Homo sapiens; THP-1, Acute monocytic leukemia, 72 hour
Protocol: as §1, §2

K562 = assay: MTT tumor cell proliferation, K562; assay type: cell-based; details: Homo sapiens; K562, Chronic myeloid leukemia, 72 hour
Protocol: as §1, §2

MV-4-11 cells = assay: MV-4-11 AML xenograft in mice (Example 7); assay type: in vivo, BALB-cA nude mice; details: D0-20; for Complete remission: number of mice, N 6
Protocol: Mice body weights and tumor sizes were measured twice a week. The tumor volume, T/C and TGI (Tumor growth inhibition=(average tumor volume in vehicle group-average tumor volume in administration group)/average tumor volume in vehicle group ×100%) were calculated. Mice were sacrificed on Day 21.

[2] = test system: Colon26 murine colon cancer cells; assay: Colon26 colon cancer growth in mice; assay type: in vivo, F1 mice; details: D1-7; for TGI / Tumor weight: Day 8
Protocol: F1 mice, 18-22 g, purchased from Shanghai Bi-Kai Laboratory Animal Co., Ltd, were subcutaneously inoculated with Colon26 murine colon cancer cells (from Cell Bank, Chinese Academy of Sciences) at the right axilla. […] Tumor growth inhibition (TGI) was calculated.

PI3K δ isoform = PI3K δ isoform (Homo sapiens, UniProt O00329); assay: biochemical
Chain of PI3K δ isoform (O00329 whole entry, canonical isoform): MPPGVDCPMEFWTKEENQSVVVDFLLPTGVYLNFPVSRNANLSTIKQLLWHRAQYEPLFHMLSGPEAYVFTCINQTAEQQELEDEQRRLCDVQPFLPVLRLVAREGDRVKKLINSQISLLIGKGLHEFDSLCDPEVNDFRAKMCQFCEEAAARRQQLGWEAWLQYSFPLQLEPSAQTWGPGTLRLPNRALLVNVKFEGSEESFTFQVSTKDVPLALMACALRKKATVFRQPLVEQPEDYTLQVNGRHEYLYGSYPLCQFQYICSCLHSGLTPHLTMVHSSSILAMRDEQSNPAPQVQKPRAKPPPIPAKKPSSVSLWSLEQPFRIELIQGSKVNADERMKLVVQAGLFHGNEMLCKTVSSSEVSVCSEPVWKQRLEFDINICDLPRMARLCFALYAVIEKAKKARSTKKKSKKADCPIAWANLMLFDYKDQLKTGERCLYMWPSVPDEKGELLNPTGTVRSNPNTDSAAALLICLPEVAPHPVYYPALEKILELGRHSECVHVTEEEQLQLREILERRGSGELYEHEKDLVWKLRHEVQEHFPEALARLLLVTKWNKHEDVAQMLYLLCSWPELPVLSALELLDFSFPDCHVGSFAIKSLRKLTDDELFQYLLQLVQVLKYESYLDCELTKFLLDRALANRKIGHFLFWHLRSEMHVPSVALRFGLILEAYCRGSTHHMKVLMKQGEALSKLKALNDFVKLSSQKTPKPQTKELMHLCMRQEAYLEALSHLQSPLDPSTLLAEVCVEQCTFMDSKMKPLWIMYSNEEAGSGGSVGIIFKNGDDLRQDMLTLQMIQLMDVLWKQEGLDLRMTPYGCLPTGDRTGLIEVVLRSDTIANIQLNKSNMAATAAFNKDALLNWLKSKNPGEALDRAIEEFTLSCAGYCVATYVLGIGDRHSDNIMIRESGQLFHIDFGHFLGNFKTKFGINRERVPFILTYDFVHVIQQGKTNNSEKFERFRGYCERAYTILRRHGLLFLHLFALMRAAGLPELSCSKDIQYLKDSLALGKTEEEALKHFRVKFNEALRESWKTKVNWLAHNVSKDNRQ
Chain of PI3K δ isoform (P27986 whole entry partner, canonical isoform): as the sequence (P27986 whole entry partner, canonical isoform) above

H526 = assay: Tumor cell death by MTT, H526; assay type: cell-based, human; details: 20 nM
Protocol: The in vitro inhibitory effect of Compound A alone or in combination with a PARP inhibitor on tumor cell growth was tested using human small cell lung cancer (SCLC) cell lines, including H69 (ATCC® HTB-119™), H526 (ATCC® CRL-5811™) and H446 (TCHu196, National Collection of Authenticated Cell Cultures).
Briefly, the cells were seeded into a 96-well dish with RPMI-1640 (10-040-CV, Coming cellgro) containing 10% fetal bovine serum (10270-106, GIBCO), 1% penicillin and 1% streptomycin (BaSalMedia, S110JV), at an initial density of 3×10^3 cells per well ([…]), and cultured at a 37° C., 5% CO2 humidified incubator for 24 hours. Then, the culture media were added with Compound A (final concentration at 20 nM), olaparib (APEXBIO, A4154, a PARP inhibitor, final concentration at 10 μM), Compound A + olaparib (final concentrations at20 nM and 10 μM), or PBS (vehicle), respectively, and the cells were cultured for 48 hours. Then, cell viability was determined by MTT. The test was done in triplicate.
Cell death rate was calculated by the following formula.
Cell death rate=[1−(ODtest-ODvehicle)]×100%
Cell death rates were analyzed using student's t-test, and group differences were deemed statistically significant when the p-value was lower than 0.05. Zheng-Jun Jin's Q value was calculated using the formula Q=EA+B/(EA+EB-EA×EB) to assess the combined effect of Compound A and the PARP inhibitor, wherein EA+B, EA, and EB referred to the cell death rates caused by the combined treatment, Compound A treatment and PARP inhibitor treatment, respectively. A Q value higher than 1.15 meant a synergistic […] effect.
Another PARP inhibitor, rucaparib (APEXBIO, A4156), was tested alone or with Compound A for inhibitory effect on tumor cell growth, following the protocol of Example 9.

HL-60 = assay: MTT tumor cell proliferation, HL-60; assay type: cell-based; details: Homo sapiens; HL-60, Acute promyelocytic leukemia, 72 hour
Protocol: as §1, §2

SK-BR-3 = assay: MTT tumor cell proliferation, SK-BR-3; assay type: cell-based; details: Homo sapiens; SK-BR-3, Breast cancer, 72 hour
Protocol: as §1, §2

c1cnc2ccc(Nc3nc(NC4CC4)c4nc[nH]c4n3)cc2c1 [Compound A]
IC50 (MCF-7): 26500 ± 7700 nM
EC50, PI3K α isoform (PI3K α isoform): at the μM level
IC50 (H441): 15900 ± 9500 nM
RTV at D18 ([1]; 15 mg/kg P.O.): 5.57 ± 2.74
Tumor volume D0 ([1]; 15 mg/kg P.O.): 162 ± 32 mm^3
Tumor volume D18 ([1]; 15 mg/kg P.O.): 845 ± 349 mm^3
T/C ([1]; 15 mg/kg P.O.): 68.2%
RTV at D18 ([1]; 30 mg/kg P.O.): 3.73 ± 1.16
Tumor volume D0 ([1]; 30 mg/kg P.O.): 197 ± 45 mm^3
Tumor volume D18 ([1]; 30 mg/kg P.O.): 701 ± 142 mm^3
T/C ([1]; 30 mg/kg P.O.): 45.7* %
RTV at D18 ([1]; 60 mg/kg P.O.): 2.58 ± 1.07
Tumor volume D0 ([1]; 60 mg/kg P.O.): 215 ± 49 mm^3
Tumor volume D18 ([1]; 60 mg/kg P.O.): 545 ± 233 mm^3
T/C ([1]; 60 mg/kg P.O.): 31.6* %
IC50 (RS 4;11): 400 ± 100 nM
IC50 (THP-1): 1600 ± 1600 nM
IC50 (K562): 1200 ± 100 nM
T/C (%) D21 (MV-4-11 cells; 30 mg/kg P.O.): 28%
TGI (%) D21 (MV-4-11 cells; 30 mg/kg P.O.): 72%
Tumor volume D0 (MV-4-11 cells; 30 mg/kg P.O.): 77.6 ± 3.4 mm^3
Tumor volume D21 (MV-4-11 cells; 30 mg/kg P.O.): 279.2 ± 71.8 mm^3
Complete remission (MV-4-11 cells; 30 mg/kg P.O.): 0
T/C (%) D21 (MV-4-11 cells; 60 mg/kg P.O.): 0%
TGI (%) D21 (MV-4-11 cells; 60 mg/kg P.O.): 100%
Tumor volume D0 (MV-4-11 cells; 60 mg/kg P.O.): 79.3 ± 2.6 mm^3
Tumor volume D21 (MV-4-11 cells; 60 mg/kg P.O.): 76.6 ± 46.2 mm^3
Complete remission (MV-4-11 cells; 60 mg/kg P.O.): 3
Body weight (without tumor) at D8 ([2]; 30 mg/kg P.O.): 21.57 g
TGI ([2]; 30 mg/kg P.O.): 31.88%
Tumor weight ([2]; 30 mg/kg P.O.): 1.39 g
Body weight (without tumor) at D8 ([2]; 60 mg/kg P.O.): 15.96 g
TGI ([2]; 60 mg/kg P.O.): 76.12%
Tumor weight ([2]; 60 mg/kg P.O.): 0.49 g
EC50 (PI3K δ isoform): ~90 nM
Cell Death Rate/% 1 (H526; 48 hours, Table 10): 10.5%
Cell Death Rate/% 2 (H526; 48 hours, Table 10): 9.87%
Cell Death Rate/% 3 (H526; 48 hours, Table 10): 10.95%
Cell Death Rate/% mean (H526; 48 hours, Table 10): 10.44%
Cell Death Rate/% 1 (H526; Example 10, Table 11): 8.29%
Cell Death Rate/% 2 (H526; Example 10, Table 11): 8.39%
Cell Death Rate/% 3 (H526; Example 10, Table 11): 8.64%
Cell Death Rate/% mean (H526; Example 10, Table 11): 8.44%
IC50 (HL-60): 500 ± 300 nM
IC50 (SK-BR-3): 16500 ± 900 nM
